Data taken from US20240051952A1, “HMOX1 INDUCERS” (Mitobridge Inc., priority 2019, published 2024).
Converted amounts (≈) assume the structure as drawn. Where a name gives a salt, the structure may show the parent alone. Blank lines part the entries; values can stand above or below the compound they belong to.

Columns and labels:
Heme Oxygenase 1 (HO1) = experiment: PD study, HMOX1 protein levels in mouse plasma and liver (ELISA); assay type: in vivo; conditions: HMOX1 protein fold induction vs time-matched vehicle, 50 mpk oral; for Liver Protein (3 h) / Liver Protein (6 h): mouse liver; for Plasma Protein (3 h) / Plasma Protein (6 h): mouse plasma
Method: 9-10 week old male C57BL/6 mice were dosed orally with 50 mg/kg of vehicle or compound formulated in 5% w/v tween 80 and 0.5% methyl cellulose. At indicated time points (3 and 6 hours or or 4 and 8 hours post-dosing as shown in the results below), whole blood was collected, animal was sacrificed and liver was collected. Blood samples were transferred to vials containing 4 μL of 10% w/v EDTA, centrifuged at 6000 rpm for 8 in below 10° C. to obtain plasma. Samples were frozen and later processed for HMOX1 protein levels as indicated below:
HMOX 1 Protein Levels: Mouse Liver
Preparation of Homogenization/Lysis Buffer
The homogenization buffer was prepared according Table A.
Immediately prior to use, add DTT (ThermoScientific #R0861) to a final concentration of 5 mM and 100×Halt Protease & Phosphatase Inhibitor Cocktail (ThermoScientific #78440) to a final concentration of 1×.
Preparation of Mouse Liver Samples
Liver samples were crushed by mortar and pestle under freezing conditions. Pulverized tissue was transferred into pre-chilled bead ruptor OMNI tubes (OMNI International, Cat #19-628). 1 mL of homogenization buffer (+DTT and HALT) was added to pulverized tissue and tubes were placed on ice. Samples were loaded and run through bead ruptor at speed 5.64 m/s, for two 20 sec cycles with 10 sec dwell between cycles and samples were immediately returned to ice. All material was transferred to a new chilled 2 mL Eppendorf tube. Samples were centrifuged for 5 minutes at 2,000 rpm at 4° C. Supernatant was transferred to a fresh chilled 1.7 mL Eppendorf tube. Samples were centrifuged for 5 minutes at 2,000 rpm at 4° C. The supernatant, consisting of cytosol and microsomes, was transferred to a fresh chilled 1.7 mL Eppendorf tube. Samples were stored at −80° C. Microsome samples were quantitated using Pierce 660 Assay (ThermoFisher Cat #22660) with pre-diluted BSA standards (ThermoFisher Cat #23208) ranging from 125-2000 μg/mL. Each sample was diluted to 10ng/ul for an ELISA input of 0.5ug in 50ul.
Preparation of Assay Reagents
All assay reagents were provided in the Heme Oxygenase 1 (HO1) Mouse SimpleStep ELISA Kit (Abcam #ab204524). Prior to use, all reagents were equilibrated to room temperature. 1×Wash Buffer PT was prepared by diluting 10×Wash Buffer PT 1:10 with deionized water. Antibody cocktail was prepared by diluting the 10×Capture Antibody and 10×Detector Antibody to 1×in Antibody Diluent 5BI. Mouse heme oxygenase 1 protein standard was reconstituted using 500ul homogenization buffer (Table A), mixed and held at room temperature for 10 minutes prior to dilution. An eight point standard curve was generated by diluting the Stock Standard 1:2 for standard curve ranging from 10,000-156.3 pg/mL.
Heme Oxygenase 1 (HO1) Mouse SimpleStep ELISA
50ul of all samples and standards were added to appropriate wells in duplicate. 50ul of 1×Antibody Cocktail was added to each well. The plate was sealed with provided seal and incubated at room temperature on a plate shaker at 400 rpm. After one hour incubation, the Antibody Cocktail was aspirated and the wells were washed three times with 350ul 1×Wash Buffer PT, aspirating completely between each step. After the last wash was aspirated dry, 100ul TMB Substrate was added to each well and the plate was incubated in the dark at room temperature for 10 minutes on a plate shaker at 400 rpm. After the 10 minute incubation, 100ul of Stop Solution was added to each well. Plate was shaken at 400 rpm for 1 minute to mix. Softmax Pro 7.0.3 was used to read OD at 450 nm as well as for analysis.
Heme Oxygenase 1 Protein Levels in Mouse Plasma
All assay reagents were provided in the Heme Oxygenase 1 (HO1) Mouse SimpleStep ELISA Kit (Abcam #ab204524). 1×Wash Buffer PT was prepared by diluting 10×Wash Buffer PT 1:10 with deionized water. Antibody cocktail was prepared by diluting the 10×Capture Antibody and 10×Detector Antibody to 1×in Antibody Diluent 5BI. […]

Kinetic solubility = assay type: physicochemical; conditions: Dulbecco's phosphate buffered saline (DPBS), aqueous buffer, kinetic from dmso stock, DPBS pH 7.4, 25° C., 200 μM test compound
Method: 10 μL of 10 mM DMSO stock solution were aliquotted to 490 μL of DMSO solution and separately 490 μL of Dulbecco's phosphate buffer saline, DPBS, pH 7.4 solution in 1.2 mL 96-well plates in duplicate. Final concentration was 200 μM of the test compound. Samples were incubated at 25° C. with shaking at 200 rpm for 16 h. Samples were centrifuged at 3500 rpm for 20 min at 25° C., and supernatant was submitted for HPLC analysis.
Kinetic solubility was measured using the following equation: […]

[1] = tested on: Human Heme Oxygenase-1 (HMOX-1); experiment: ELISA assay to measure human heme oxygenase-1 (HMOX-1) in HepG2 lysate; assay type: cell-based; conditions: for Maximum Fold induction: fold change of human HMOX1 protein levels relative to DMSO control, HepG2; for EC50: human HMOX1 protein in HepG2 lysate, ELISA, * = average of 2 or more EC50 determinations, NA = Not Active
How it was run: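 HepG2 cells lysed in PBS/0.5% Triton X-100/1 mM EDTA with protease inhibitors; lysate diluted 1:20. Sandwich ELISA: anti-HO-1 capture (8 μg/ml), biotinylated detection antibody (200 ng/ml), streptavidin-HRP, chemiluminescent read. Quantified against 12-point HO-1 standard curve from 20 ng/ml; incubations at 20 °C.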

[2] = PD study, liver compound concentration in mice; assay type: in vivo; conditions: mouse liver, 50 mpk oral
FTH1 = FTH1 mRNA expression in HepG2 cells (Nanostring); assay type: cell-based, human; conditions: 24 hours treatment
Method: RNA Isolation and Quantification of Gene Expression
HepG2 cells were seeded at 250 k/well in 12-well tissue culture plates coated with collagen (collagen I, rat tail (thin plate coating); ENZO Life Sciences) for approximately 24 hours. The seeded cells were then treated with dose titration of the compound of Example 17 or dimethyl fumarate (DMF) (a Nrf2 activator; Fisher Scientific) via media change, with biological triplicates performed for each treatment. After approximately 24 hours of treatment, cells were visually inspected to confirm that no toxicity occurred with compound treatment. The treated cells were washed with PBS, aspirated, parafilmed and frozen at −80° C. prior to RNA isolation. RNA was isolated using Machery-Nagel isolation kit (NucleoSpin® RNA: catalog 740955.250) and then quantitated using ThermoFisher Nanodrop.
RNA was diluted for Nanostring gene expression analysis. The diluted RNA at an input of 200ng RNA was run on a Nanostring instrument, which was supported with nCounter® SPRINT Profiler System and nSolver4.0 Software, nCounter® SPRINT Cartridge, nCounter® SPRINT Reagent Pack, and nCounter© SPRINT Hybridization Buffer. Analysis was done manually using raw data obtained from nSolver4.0 Software. CLTC, POLR2A, RPL27 and TBP were used as reference genes for normalization. Data was graphed as fold change compared to DMSO treatment. […]

[3] = PK study, plasma and brain levels in C57BL/6 mice; assay type: in vivo, mouse; conditions: male C57BL/6 mice, 50 mg/kg oral
Method: 9-10 week old male C57BL/6 mice were dosed orally with 50 mg/kg of the test compound formulated in 5% w/v tween 80 and 0.5% methyl cellulose. At 0.5 and 4 h post dosing, whole blood was collected, animals were sacrificed and brain tissues were collected. The blood samples were immediately placed on ice, and centrifuged within 60 min at 4° C. for 3 min at 14000 rpm to obtain plasma. Plasma was transferred by pipette to pre-labeled Eppendorf tubes, stored at −80° C. until analyzed.
Brain tissue samples were collected and rinsed with fresh ice cold 0.9% NaCl solution, dried quickly and thereafter frozen on dry ice/liquid nitrogen and stored at −70±10° C. until analyzed. Homogenization was done using phosphate buffer saline and used for analysis. Bioanalysis was performed using LC-MS/MS (API 4000).

Compound: Cn1c(Nc2nc3ccc(OC(F)(F)F)cc3s2)nc2cc(C(=O)NCCOCCO)ccc21 [Comparator 1, 1-methyl-2-(6-trifluoromethoxy-benzothiazol-2-ylamino)-1H-benzoimidazole-5-carboxylic acid [2-(2-hydroxyethoxy)-ethyl]-amide, reference compound]
- Liver Protein (3 h) (Heme Oxygenase 1 (HO1)): 1.6x
- Liver Protein (6 h) (Heme Oxygenase 1 (HO1)): 3.2x
- Plasma Protein (3 h) (Heme Oxygenase 1 (HO1)): 1.1x
- Plasma Protein (6 h) (Heme Oxygenase 1 (HO1)): 1.3x

Compound: CC1CCc2nc(Nc3nc4cc(C(=O)NCCOCCO)ccc4n3C)sc2C1 (centres unmarked) [Example 7, N-(2-(2-hydroxyethoxy)ethyl)-1-methyl-2-((6-methyl-4,5,6,7-tetrahydrobenzo[d]thiazol-2-yl)amino)-1H-benzo[d]imidazole-5-carboxamide]
- solubility at 16 h (Kinetic solubility): 7.2 µM (≈ 3.09 µg/mL)
- Maximum Fold induction [1]: 27
- EC50 [1]: 2700 nM

Compound: Cn1c(Nc2nc3c(s2)CC(C)(C)CC3)nc2cc(C(=O)NCCOCCO)ccc21 [Example 6, 2-((6,6-dimethyl-4,5,6,7-tetrahydrobenzo[d]thiazol-2-yl)amino)-N-(2-(2-hydroxyethoxy)ethyl)-1-methyl-1H-benzo[d]imidazole-5-carboxamide]
- solubility at 16 h (Kinetic solubility): 8.1 µM (≈ 3.59 µg/mL)
- Maximum Fold induction [1]: 41
- EC50 [1]: 3000 nM

Compound: Cn1c(Nc2nc3cc(OC(F)(F)F)ccc3[nH]2)nc2cc(C(=O)O)ccc21 [Example 13, 1-methyl-2-((5-(trifluoromethoxy)-1H-benzo[d]imidazol-2-yl)amino)-1H-benzo[d]imidazole-5-carboxylic acid]
- Liver Protein (3 h) (Heme Oxygenase 1 (HO1)): 1.8x
- Liver Protein (6 h) (Heme Oxygenase 1 (HO1)): 1.2x
- Plasma Protein (3 h) (Heme Oxygenase 1 (HO1)): 1.1x
- Plasma Protein (6 h) (Heme Oxygenase 1 (HO1)): 0.8x
- Maximum Fold induction [1]: 6-27

Compound: COC(=O)/C=C/C(=O)OC [DMF, dimethyl fumarate, reference compound]
- FTH1 expression fold increase (FTH1): comparable fold increases

Compound: Cn1c(Nc2nc3ccccc3o2)nc2cc(C(=O)NCC3(O)COC3)ccc21 [Example 26, 2-(benzo[d]oxazol-2-ylamino)-N-((3-hydroxyoxetan-3-yl)methyl)-1-methyl-1H-benzo[d]imidazole-5-carboxamide]
- Maximum Fold induction [1]: 26

Compound: Cn1c(Nc2nc3ccc(OC(F)(F)F)cc3o2)nc2cc(C(=O)NC3COC3)ccc21 [Example 51, 1-methyl-N-(oxetan-3-yl)-2-((6-(trifluoromethoxy)benzo[d]oxazol-2-yl)amino)-1H-benzo[d]imidazole-5-carboxamide]
- Maximum Fold induction [1]: 30-57

Further lines, with some results ahead:

- Liver Conc uM (3 h) ([2]; 3 h): 217 µM
- Liver Conc uM (6 h) ([2]; 6 h): 162 µM
- Maximum Fold induction [1]: 9-14
Compound: Cn1c(Nc2nc3ccc(OC(F)(F)F)cc3o2)nc2cc(C(=O)O)ccc21 [Example 44, 1-methyl-2-((6-(trifluoromethoxy)benzo[d]oxazol-2-yl)amino)-1H-benzo[d]imidazole-5-carboxylic acid]
- Liver Protein (3 h) (Heme Oxygenase 1 (HO1)): 1.6x
- Liver Protein (6 h) (Heme Oxygenase 1 (HO1)): 2.1x
- Plasma Protein (3 h) (Heme Oxygenase 1 (HO1)): 1.0 x
- Plasma Protein (6 h) (Heme Oxygenase 1 (HO1)): 1.1x

- solubility at 16 h (Kinetic solubility): 6.9 µM (≈ 2.56 µg/mL)
- Maximum Fold induction [1]: 5-8
- EC50 [1]: 2500 nM
Compound: COCCNC(=O)c1ccc2c(c1)nc(Nc1nc3c(s1)CCC3)n2C [Example 8, 2-((5,6-dihydro-4H-cyclopenta[d]thiazol-2-yl)amino)-N-(2-methoxyethyl)-1-methyl-1H-benzo[d]imidazole-5-carboxamide]

- brain penetration [3]: good brain penetration
- Maximum Fold induction [1]: 21-38
Compound: COCCNC(=O)c1ccc2c(c1)nc(Nc1nc3ccc(OCCOC)cc3o1)n2C [Example 56, 2-((6-(2-methoxyethoxy)benzo[d]oxazol-2-yl)amino)-N-(2-methoxyethyl)-1-methyl-1H-benzo[d]imidazole-5-carboxamide]

- solubility at 16 h (Kinetic solubility): 2.8 µM
- Maximum Fold induction [1]: 2
Compound: Cl.Cn1c(Nc2nc3c(s2)CNCC3)nc2cc(C(=O)NCCOCCO)ccc21 [Example 9, N-(2-(2-hydroxyethoxy)ethyl)-1-methyl-2-((4,5,6,7-tetrahydrothiazolo[5,4-c]pyridin-2-yl)amino)-1H-benzo[d]imidazole-5-carboxamide hydrochloride]

- Maximum Fold induction [1]: 20
Compound: Cn1c(Nc2nc3ccc(OC4CCOCC4)cc3o2)nc2cc(C(=O)NCCOCCO)ccc21 [Example 138, N-(2-(2-hydroxyethoxy)ethyl)-1-methyl-2-((6-((tetrahydro-2H-pyran-4-yl)oxy)benzo[d]oxazol-2-yl)amino)-1H-benzo[d]imidazole-5-carboxamide]

- solubility at 16 h (Kinetic solubility): 3.5 µM (≈ 1.46 µg/mL)
- Maximum Fold induction [1]: 18
Compound: Cn1c(Nc2nc3ccccc3o2)nc2cc(C(=O)NCCNC3=NCCN3)ccc21 [Example 22, 2-(benzo[d]oxazol-2-ylamino)-N-(2-((4,5-dihydro-1H-imidazol-2-yl)amino)ethyl)-1-methyl-1H-benzo[d]imidazole-5-carboxamide]
